In US11325884B2, “Ketone inhibitors of lysine gingipain” (CORTEXYME, INC., priority 2016, dated 2022):
“And” between values parts separate entries of the source, which are not always exact repeats. Equal values may be shown once. Read-outs that look alike come from different tables or passages of the source.

What was measured:
lysine gingipain (Kgp) = lysine gingipain (Kgp) (Porphyromonas gingivalis (strain ATCC 33277 / DSM 20709 / CIP 103683 / JCM 12257 / NCTC 11834 / 2561), UniProt B2RLK2); test: Inhibition of lysine gingipain, fluorogenic assay (Z-His-Glu-Lys-MCA); assay type: biochemical; details: for selectivity for Kgp over endogenous cathepsins: as compared to reference compound 73
Procedure: The specific assay conditions were as follows. Buffer: pH=7.5, 100 mM Tris-HCl, 75 mM NaCl, 2.5 mM CaCl2, 10 mM cysteine, 1% DMSO after all additions. Protein: 0.1 nM Kgp, isolated from culture of Porphyromonas gingivalis, as described by Pike et al. (J. Biol. Chem. 1994, 269(1), 406), and Potempa and Nguyen (Current Protocols in Protein Science. 2007, 21.20.1-21.20.27). Fluorogenic substrate: 10 μM Z-His-Glu-Lys-MCA. Time=90 minutes. Temperature=37° C.
Further assays to measure the inhibitory activity of compounds of the present invention against Kgp and cathepsins B, H, K, L, and S were conducted as described in Example 66. The capacities of the compounds to inhibit the activity of cathepsins F, V, and Z were also measured.

Kgp = Kgp (Porphyromonas gingivalis (Bacteroides gingivalis), UniProt Q51817); test: Activity probe labeling of Kgp in P. gingivalis-infected Jurkat cells; assay type: cell-based
Source text: The identity of this labeled protein in P. gingivalis-infected cells was confirmed to be Kgp by Western blot.

[1] = Oral pharmacokinetics in CD-1 mice; assay type: in vivo; details: male CD-1 mice, p.o. 10 mg/kg; for oral availability / plasma concentrations: as compared to reference compound 73
[2] = Table 3, read-out: IC50 (nM) Kgp
[3] = Table 4, read-out: IC50 (nM) Kgp
[4] = Table 5, probe compounds, read-out: Kgp IC50

SMILES	IC50 (lysine gingipain (Kgp); [3]) [nM]	other results
NCCCC[C@H](NC(=O)C1CCCC1)C(=O)COc1c(F)c(F)cc(F)c1F (stereo in doubt) [Compound 73, N-[7-amino-2-oxo-1-(2,3,5,6-tetrafluorophenoxy)heptan-3-yl]cyclopentanecarboxamide, reference compound]	< 0.05	Kgp IC50 values (in words) (lysine gingipain (Kgp)): sub-nanomolar; IC50 (lysine gingipain (Kgp); [2]): ≤ 0.05 nM; IC50 (lysine gingipain (Kgp); [4]): < 0.05 nM
NCCCC[C@H](NC(=O)C1CCCC1)C(=O)COc1c(F)cccc1F [Compound 2, (S)—N-(7-amino-1-(2,6-difluorophenoxy)-2-oxoheptan-3-yl)cyclopentanecarboxamide]		selectivity for Kgp over endogenous cathepsins (lysine gingipain (Kgp)): increased selectivity
NCCCCC(NC(=O)C1CCCC1)C(=O)COc1c(F)cccc1F (stereo not drawn) [Compound 2a]	< 0.05	IC50 (lysine gingipain (Kgp); [2]): ≤ 0.05 nM and 0.11 nM
NCCCCC(NC(=O)C1CCCC1)C(=O)COc1ccccc1F (stereo not drawn) [Compound 3a]		IC50 (lysine gingipain (Kgp); [2]): 0.64 nM
NCCCCC(NC(=O)C1CCCC1)C(=O)COc1cc(F)cc(F)c1F (stereo not drawn) [Compound 4a]		IC50 (lysine gingipain (Kgp); [2]): 0.07 nM
NCCCCC(NC(=O)C1CCCC1)C(=O)COc1cccc(F)c1F (stereo not drawn) [Compound 5a]		IC50 (lysine gingipain (Kgp); [2]): 0.15 nM
NCCCCC(NC(=O)C1CCCC1)C(=O)COc1cc(F)ccc1F (stereo not drawn) [Compound 6a]		IC50 (lysine gingipain (Kgp); [2]): 0.19 nM
NCCCC[C@H](NC(=O)C1CCCC1)C(=O)COc1cccc(F)c1 [Compound 7, (S)—N-(7-amino-1-(3-fluorophenoxy)-2-oxoheptan-3-yl)cyclopentanecarboxamide]		selectivity for Kgp over endogenous cathepsins (lysine gingipain (Kgp)): increased selectivity
NCCCCC(NC(=O)C1CCCC1)C(=O)COc1cccc(F)c1 (stereo not drawn) [Compound 7a]	1.3	IC50 (lysine gingipain (Kgp); [2]): 1.3 nM
NCCCCC(NC(=O)C1CCCC1)C(=O)COc1cc(F)cc(F)c1 (stereo not drawn) [Compound 8a]		IC50 (lysine gingipain (Kgp); [2]): 0.34 nM
[N-]=[N+]=Nc1cccc(C(=O)NC(CCCCN)C(=O)COc2c(F)cccc2F)c1 (stereo not drawn) [Compound 12a]		IC50 (lysine gingipain (Kgp); [2]): 0.08 nM
CC1=CC(C)=[N+]2C1=Cc1ccc(CCC(=O)NCc3cn(-c4cccc(C(=O)NC(CCCCN)C(=O)COc5c(F)cccc5F)c4)nn3)n1[B-]2(F)F (stereo not drawn) [Compound 15a]		binding to purified Kgp and to Kgp in infected cells (Kgp; FIG. 6A): irreversibly binds
CSCC(=O)C(CCCCN)NC(=O)C1CCCC1 (stereo not drawn) [Compound 16a]		IC50 (lysine gingipain (Kgp); [2]): > 100 nM
NCCCCC(NC(=O)C1CCCC1)C(=O)COCC(F)(F)F (stereo not drawn) [Compound 17a]		IC50 (lysine gingipain (Kgp); [2]): > 100 nM
NCCCC[C@H](NC(=O)C1CCCC1)C(=O)COC(C(F)(F)F)C(F)(F)F [Compound 18, (S)—N-(7-amino-1-((1,1,1,3,3,3-hexafluoropropan-2-yl)oxy)-2-oxoheptan-3-yl)cyclopentanecarboxamide]		selectivity for Kgp over endogenous cathepsins (lysine gingipain (Kgp)): far more selective
NCCCCC(NC(=O)C1CCCC1)C(=O)COC(C(F)(F)F)C(F)(F)F (stereo not drawn) [Compound 18a]	0.5	IC50 (lysine gingipain (Kgp); [2]): 0.5 nM
CN(C)CC(=O)C(CCCCN)NC(=O)C1CCCC1 (stereo not drawn) [Compound 19a]		IC50 (lysine gingipain (Kgp); [2]): > 100 nM
CS(=O)(=O)CC(=O)C(CCCCN)NC(=O)C1CCCC1 (stereo not drawn) [Compound 20a]		IC50 (lysine gingipain (Kgp); [2]): > 100 nM
NCCCCC(NC(=O)c1cccc(F)c1)C(=O)COc1c(F)cccc1F (stereo not drawn) [Compound 26a]	0.09	
NCCCCC(NC(=O)c1cccc(OCCF)c1)C(=O)COc1c(F)cccc1F (stereo not drawn) [Compound 27a]	0.27	

SMILES	IC50 (lysine gingipain (Kgp); [3]) [nM]	other results
NCCCCC(NC(=O)c1cccc(F)n1)C(=O)COc1c(F)cccc1F (stereo not drawn) [Compound 28a]	0.34	
NCCCCC(NC(=O)c1ccc(F)nc1)C(=O)COc1c(F)cccc1F (stereo not drawn) [Compound 29a]	0.31	
NCCCCC(NC(=O)c1cccc(OCCCF)c1)C(=O)COc1c(F)cccc1F (stereo not drawn) [Compound 30a]	0.21	
NCCCCC(NC(=O)c1ccnc(F)c1)C(=O)COc1c(F)cccc1F (stereo not drawn) [Compound 31a]	0.15	
NCCCCC(NC(=O)c1cccnc1F)C(=O)COc1c(F)cccc1F (stereo not drawn) [Compound 32a]	0.08	
[N-]=[N+]=Nc1cccc(C(=O)NC(CCCCN)C(=O)COc2c(F)cccc2F)c1 (stereo not drawn) [Compound 33a]	0.08	
NCCCCC(NC(=O)c1cccnc1Br)C(=O)COc1c(F)cccc1F (stereo not drawn) [Compound 34a]	0.13	
NCCCCC(NC(=O)c1ccc(F)cc1)C(=O)COc1c(F)cccc1F (stereo not drawn) [Compound 35a]	0.1	
NCCCCC(NC(=O)c1ccccc1)C(=O)C(F)F (stereo not drawn) [Compound 37a]	> 100	
NCCCCC(NC(=O)C1CCCC1)C(=O)Cn1cnccc1=O (stereo not drawn) [Compound 39a]	> 100	
NCCCCC(NC(=O)C1CCCC1)C(=O)Cn1ccc(=O)nc1 (stereo not drawn) [Compound 40a]	30.3	
NCCCCC(NC(=O)C1CCCC1)C(=O)Cn1cncc(F)c1=O (stereo not drawn) [Compound 41a]	> 100	
NCCCCC(NC(=O)c1cccnc1)C(=O)COc1c(F)ccc(F)c1F (stereo not drawn) [Compound 42a]	0.06	
NCCCCC(NC(=O)c1cccnc1)C(=O)COc1c(F)cccc1F (stereo not drawn) [Compound 43a]	0.09	
CN(C)c1ccc(/N=N/c2ccc(C(=O)NCc3cc(F)c(OCC(=O)C(CCCCN)NC(=O)c4cccc(N=[N+]=[N-])c4)c(F)c3)cc2)cc1 (stereo not drawn) [Compound 44a]	3.04	IC50 (lysine gingipain (Kgp); [4]): 3 nM
COC(C)(C)C(=O)N[C@@H](CCCCN)C(=O)COc1c(F)ccc(F)c1F [Compound 47, (S)—N-(7-amino-2-oxo-1-(2,3,6-trifluorophenoxy)heptan-3-yl)-2-methoxy-2-methylpropanamide]		selectivity for Kgp over endogenous cathepsins (lysine gingipain (Kgp)): far more selective; concentrations in the brain and cerebrospinal fluid (CSF) [1]: increased; oral availability [1]: improved; plasma concentrations [1]: increased
COC(C)(C)C(=O)NC(CCCCN)C(=O)COc1c(F)ccc(F)c1F (stereo not drawn) [Compound 47a]	0.06	
COC(C)(C)C(=O)N[C@@H](CCCCN)C(=O)COc1c(F)cccc1F [Compound 48, (S)—N-(7-amino-1-(2,6-difluorophenoxy)-2-oxoheptan-3-yl)-2-methoxy-2-methylpropanamide]		oral availability [1]: improved; plasma concentrations [1]: increased
COC(C)(C)C(=O)NC(CCCCN)C(=O)COc1c(F)cccc1F (stereo not drawn) [Compound 48a]	0.07	
NCCCC[C@H](NC(=O)C1CCCC1)C(=O)COc1ccon1 [Compound 49, (S)—N-(7-amino-1-(isoxazol-3-yloxy)-2-oxoheptan-3-yl)cyclopentanecarboxamide]		concentrations in the brain and cerebrospinal fluid (CSF) [1]: reduced

SMILES	IC50 (lysine gingipain (Kgp); [3]) [nM]	other results
NCCCCC(NC(=O)C1CCCC1)C(=O)COc1ccon1 (stereo not drawn) [Compound 49a]	0.23	
NCCCC[C@H](NC(=O)c1ccccn1)C(=O)COc1c(F)ccc(F)c1F [Compound 50, (S)—N-(7-amino-2-oxo-1-(2,3,6-trifluorophenoxy)heptan-3-yl)picolinamide]		selectivity for Kgp over endogenous cathepsins (lysine gingipain (Kgp)): increased selectivity
NCCCCC(NC(=O)c1ccccn1)C(=O)COc1c(F)ccc(F)c1F (stereo not drawn) [Compound 50a]	0.09	
NCCCCC(NC(=O)c1ccncc1)C(=O)COc1c(F)ccc(F)c1F (stereo not drawn) [Compound 52a]	0.06	
NCCCC[C@H](NC(=O)c1ccc(F)nc1)C(=O)COc1ccon1 [Compound 55, (S)—N-(7-amino-1-(isoxazol-3-yloxy)-2-oxoheptan-3-yl)-6-fluoronicotinamide]		selectivity for Kgp over endogenous cathepsins (lysine gingipain (Kgp)): far more selective
NCCCCC(NC(=O)c1ccc(F)nc1)C(=O)COc1ccon1 (stereo not drawn) [Compound 55a]	0.12	
NCCCCC(NC(=O)c1cccnc1F)C(=O)COc1ccon1 (stereo not drawn) [Compound 56a]	0.1	
COC(C)(C)C(=O)NC(CCCCN)C(=O)COc1ccon1 (stereo not drawn) [Compound 57a]	0.09	
CS(C)(=O)=CC(=O)C(CCCCN)NC(=O)C1CCCC1 (stereo not drawn) [Compound 58a]	4.66	
C[N+](C)(C)c1ccc(C(=O)NC(CCCCN)C(=O)COc2ccon2)cn1 (stereo not drawn) [Compound 61a]	0.43	
CN(C)c1ccc(C(=O)NC(CCCCN)C(=O)COc2ccon2)cn1 (stereo not drawn) [Compound 62a]	0.14	
COC(C)(C)C(=O)NC(CCCCN)C(=O)COc1cc(C)nc(C)c1 (stereo not drawn) [Compound 63a]	0.09	
COC(C)(C)C(=O)NC(CCCCN)C(=O)COc1cccnc1 (stereo not drawn) [Compound 64a]	0.4	
COC(C)(C)C(=O)NC(CCCCN)C(=O)COc1cnc(C)nc1 (stereo not drawn) [Compound 65a]	0.16	
COC(C)(C)C(=O)N[C@@H](CCCCN)C(=O)COC(C(F)(F)F)C(F)(F)F [Compound 69, (S)—N-(7-amino-1-((1,1,1,3,3,3-hexafluoropropan-2-yl)oxy)-2-oxoheptan-3-yl)-2-methoxy-2-methylpropanamide]		selectivity for Kgp over endogenous cathepsins (lysine gingipain (Kgp)): far more selective; concentrations in the brain and cerebrospinal fluid (CSF) [1]: increased; oral availability [1]: improved; plasma concentrations [1]: increased
COC(C)(C)C(=O)NC(CCCCN)C(=O)COC(C(F)(F)F)C(F)(F)F (stereo not drawn) [Compound 69a]	0.21	
C[N+]1=C(/C=C/C=C/C=C2\N(CCCCCC(=O)NCc3cn(-c4cccc(C(=O)N[C@@H](CCCCN)C(=O)COc5c(F)cccc5F)c4)nn3)c3ccc(S(=O)(=O)O)cc3C2(C)C)C(C)(C)c2cc(S(=O)(=O)O)ccc21 [Compound 70]		effect of preincubation on binding of probe 15a to Kgp (Kgp; infected Jurkat cells, preincubation 1 hour): blocked the binding
NCCCC[C@@H](NC(=O)C1CCCC1)C(=O)COc1c(F)c(F)cc(F)c1F [Compound 74, reference compound]		IC50 (lysine gingipain (Kgp); [2]): ≤ 0.05 nM
